The values that follow come from US20230303483A1, “USE OF STROBILURIN TYPE COMPOUNDS FOR COMBATING PHYTOPATHOGENIC FUNGI CONTAINING AN AMINO ACID SUBSTITUTION F129L IN THE MITOCHONDRIAL CYTOCHROME B PROTEIN CONFERRING RESISTANCE TO QO […]” (BASF SE, priority 2020, published 2023).

In assay [1] the test system is Phakopsora pachyrhizi (strain containing the amino acid substitution F129L in the mitochondrial cytochrome b protein). The assay is described as follows: Use example 1: protective control of soybean rust on soybeans (PHAKPA P2), inoculation 2 days after spraying. In kind it is in vivo. As to conditions: % diseased leaf area on soybean, 16 ppm spray, inoculation 2 days after treatment, untreated controls usually >85 %. Here is the method:
(§1) The compound was dissolved in a mixture of acetone and/or dimethylsulfoxide and the wetting agent/emulsifier Wettol, which is based on ethoxylated alkylphenoles, in a ratio (volume) solvent-emulsifier of 99 to 1 to give a total volume of 5 ml. Subsequently, water was added to total volume of 100 ml. This stock solution was then diluted with the described solvent-emulsifier-water mixture to the final concentration given in the table below.
Use example 1. Protective control of soybean rust on soybeans caused by Phakopsora pachyrhizi (PHAKPA P2)
(§2) Leaves of potted soybean seedlings were sprayed to run-off with the previously described spray solution, containing the concentration of active ingredient or their mixture as described below. The plants were allowed to air-dry. The trial plants were cultivated for 2 days in a greenhouse chamber at 23-27° C. and a relative humidity between 60 and 80 %. Then the plants were inoculated with spores of Phakopsora pachyrhizi. The strain used contains the amino acid substitution F129L in the mitochondrial cytochrome b protein conferring resistance to Qo inhibitors. To ensure the success the artificial inoculation, the plants were transferred to a humid chamber with a relative humidity of about 95 % and 20 to 24° C. for 24 hr. The trial plants were cultivated for up to 14 days in a greenhouse chamber at 23 to 27° C. and a relative humidity between 60 and 80 %. The extent of fungal attack on the leaves was visually assessed as % diseased leaf area, the disease level of untreated controls was usually higher than 85 %.
(§3) All test results below are given for the control of phytopathogenic fungi containing the amino acid substitution F129L in the mitochondrial cytochrome b protein conferring resistance to Qo inhibitors.

Assay [2] shares this test system. Kind of assay: Use example 2: protective control of soybean rust on soybeans (PHAKPA P6), inoculation six days after spraying. The format is in vivo. As to conditions: % diseased leaf area on soybean, 16 ppm spray, inoculation six days after treatment, untreated controls usually >85 %. Here is the method: as §1
Use example 2. Protective control of soybean rust on soybeans caused by Phakopsora pachyrhizi (PHAKPA P6)
as §2, with “active ingredient as described” for “active ingredient or their mixture as described”, “cultivated for six days in” for “cultivated for 2 days in”, “% and 23 to 27°” for “% and 20 to 24°”, “23 to 27° C. for” for “20 to 24° C. for”
as §3

On to `CO/N=C(/C(=O)OC)c1ccccc1CO/N=C(\C)C#Cc1ccccc1` [Example 1, Methyl (2E)-2-methoxyimino-2-[2-[[(E)-(1-methyl-3-phenyl-prop-2-ynylidene)amino]-oxymethyl]phenyl]acetate], for which, in assay [1], the “PHAKPA Disease level (%) P2 at 16 ppm” value was found to be 38%. Moreover, in assay [2], the “PHAKPA Disease level (%) P6 at 16 ppm” value worked out at 58%.
For `CNC(=O)/C(=N/OC)c1ccccc1CO/N=C(\C)C#Cc1ccccc1` [Example 2, (2E)-2-Methoxyimino-N-methyl-2-[2-[[(E)-(1-methyl-3-phenyl-prop-2-ynylidene)-amino]oxymethyl]phenyl]acetamide], in that order: 97% and 90%.
In the case of `CO/N=C(/C(=O)OC)c1ccccc1CO/N=C(\C)C#Cc1ccc(Cl)cc1` [Example 3], in assay [1], the “PHAKPA Disease level (%) P2 at 16 ppm” value came out at 70%. Moreover, the “PHAKPA Disease level (%) P6 at 16 ppm” value in assay [2] is given as 70%.
As to `CNC(=O)/C(=N/OC)c1ccccc1CO/N=C(\C)C#Cc1ccc(Cl)cc1` [Example 4], the “PHAKPA Disease level (%) P2 at 16 ppm” value in assay [1] amounted to 3%. The “PHAKPA Disease level (%) P6 at 16 ppm” value in assay [2] worked out at 7%.
Take `CNC(=O)/C(=N/OC)c1ccccc1CO/N=C(\C)C#Cc1cccc(Br)c1` [Example 5]: the “PHAKPA Disease level (%) P2 at 16 ppm” value in assay [1] came out at 1%. Moreover, the “PHAKPA Disease level (%) P6 at 16 ppm” value in assay [2] stood at 7%.
Consider `CO/N=C(/C(=O)OC)c1ccccc1CO/N=C(\C)C#Cc1cccc(Br)c1` [Example 6], for which the “PHAKPA Disease level (%) P2 at 16 ppm” value in assay [1] came out at 25%. The “PHAKPA Disease level (%) P6 at 16 ppm” value in assay [2] was 43%.
On to `CO/N=C(/C(=O)OC)c1ccccc1CO/N=C(\C)C#Cc1ccc(F)cc1` [Example 7], for which the “PHAKPA Disease level (%) P2 at 16 ppm” value in assay [1] was 30%. Besides, the “PHAKPA Disease level (%) P6 at 16 ppm” value in assay [2] is given as 50%.
For `CNC(=O)/C(=N/OC)c1ccccc1CO/N=C(\C)C#Cc1ccc(F)cc1` [Example 8], the “PHAKPA Disease level (%) P2 at 16 ppm” value in assay [1] turned out to be 0%. The “PHAKPA Disease level (%) P6 at 16 ppm” value in assay [2] was determined as 0.7%.
In the case of `CNC(=O)/C(=N/OC)c1ccccc1CO/N=C(\C)C#Cc1ccccc1OC(F)(F)F` [Example 9], the “PHAKPA Disease level (%) P2 at 16 ppm” value in assay [1] was found to be 0%. In assay [2], the “PHAKPA Disease level (%) P6 at 16 ppm” value is on record as 5%.
Turning to `CO/N=C(/C(=O)OC)c1ccccc1CO/N=C(\C)C#Cc1ccccc1OC(F)(F)F` [Example 10], the “PHAKPA Disease level (%) P2 at 16 ppm” value in assay [1] stood at 70%. For the same molecule, the “PHAKPA Disease level (%) P6 at 16 ppm” value in assay [2] was 83%.
Turning to `CNC(=O)/C(=N/OC)c1ccccc1CO/N=C(\C)C#Cc1ccc(OC(F)(F)F)cc1` [Example 11, (2E)-2-Methoxyimino-N-methyl-2-[2-[[(E)-[1-methyl-3-[4-(trifluoromethoxy)phenyl]-prop-2-ynylidene]amino]oxymethyl]phenyl]acetamide], the “PHAKPA Disease level (%) P2 at 16 ppm” value in assay [1] is 53%. Further, the “PHAKPA Disease level (%) P6 at 16 ppm” value in assay [2] worked out at 67%.
As to `CO/N=C(/C(=O)OC)c1ccccc1CO/N=C(\C)C#Cc1ccc(OC(F)(F)F)cc1` [Example 12, methyl(2E)-2-methoxyimino-2-[2-[[(E)-[1-methyl-3-[4-(trifluoromethoxy)phenyl]prop-2-ynylidene]amino]oxymethyl]phenyl]acetate], in assay [1], the “PHAKPA Disease level (%) P2 at 16 ppm” value is given as 93%. For the same molecule, the “PHAKPA Disease level (%) P6 at 16 ppm” value in assay [2] was found to be 100%.
For `CNC(=O)/C(=N/OC)c1cccc(C)c1CO/N=C(\C)C#Cc1ccccc1` [Example 16, (2E)-2-Methoxyimino-N-methyl-2-[3-methyl-2-[[(E)-(1-methyl-3-phenyl-prop-2-ynylidene)amino]oxymethyl]phenyl]acetamide], in that order: 0% and 0%.
With `CNC(=O)/C(=N/OC)c1cccc(C)c1CO/N=C(\C)C#Cc1ccc(C)cc1` [Example 19], the “PHAKPA Disease level (%) P2 at 16 ppm” value in assay [1] is recorded as 0%. Besides, in assay [2], the “PHAKPA Disease level (%) P6 at 16 ppm” value worked out at 0.6%.
The corresponding values for `CO/N=C(/C(=O)OC)c1cccc(C)c1CO/N=C(\C)C#Cc1ccc(C)cc1` [Example 20] are 2% and 1%.
In the case of `CNC(=O)/C(=N/OC)c1cccc(C)c1CO/N=C(\C)C#Cc1ccc(OC(F)(F)F)cc1` [Example 21, (2E)-2-Methoxyimino-N-methyl-2-[3-methyl-2-[[(E)-[1-methyl-3-[4-(trifluoromethoxy)phenyl]prop-2-ynylidene]amino]oxymethyl]phenyl]acetamide], in assay [1], the “PHAKPA Disease level (%) P2 at 16 ppm” value is 25%. In assay [2], the “PHAKPA Disease level (%) P6 at 16 ppm” value was determined as 33%.
For `CO/N=C(/C(=O)OC)c1cccc(C)c1CO/N=C(\C)C#Cc1ccc(OC(F)(F)F)cc1` [Example 22, methyl (2E)-2-methoxyimino-2-[3-methyl-2-[[(E)-[1-methyl-3-[4-(trifluoromethoxy)-phenyl]prop-2-ynylidene]amino]oxymethyl]phenyl]acetate], in that order: 93% and 97%.
Take `CO/N=C(/C(=O)OC)c1cccc(C)c1CO/N=C(\C)C#Cc1ccccc1C` [Example 23]: the “PHAKPA Disease level (%) P2 at 16 ppm” value in assay [1] is 0%. For the same molecule, in assay [2], the “PHAKPA Disease level (%) P6 at 16 ppm” value was found to be 0%.
As to `CNC(=O)/C(=N/OC)c1cccc(C)c1CO/N=C(\C)C#Cc1ccccc1OC(F)(F)F` [Example 25], the “PHAKPA Disease level (%) P2 at 16 ppm” value in assay [1] is 0%. For the same molecule, the “PHAKPA Disease level (%) P6 at 16 ppm” value in assay [2] is on record as 0%.
Consider `CO/N=C(/C(=O)OC)c1cccc(C)c1CO/N=C(\C)C#Cc1ccccc1OC(F)(F)F` [Example 26], for which, in assay [1], the “PHAKPA Disease level (%) P2 at 16 ppm” value came to 2%. For the same molecule, the “PHAKPA Disease level (%) P6 at 16 ppm” value in assay [2] is recorded as 6%.
`CNC(=O)/C(=N/OC)c1cccc(C)c1CO/N=C(\C)C#Cc1cccc(OC(F)(F)F)c1` [Example 27]: in assay [1], the “PHAKPA Disease level (%) P2 at 16 ppm” value was 0%. In assay [2], the “PHAKPA Disease level (%) P6 at 16 ppm” value is 0%.
With `CO/N=C(/C(=O)OC)c1cccc(C)c1CO/N=C(\C)C#Cc1cccc(OC(F)(F)F)c1` [Example 28], in assay [1], the “PHAKPA Disease level (%) P2 at 16 ppm” value was 0%. Besides, the “PHAKPA Disease level (%) P6 at 16 ppm” value in assay [2] came to 0%.
Consider `CNC(=O)/C(=N/OC)c1cccc(C)c1CO/N=C(\C)C#Cc1cccc(Br)c1` [Example 29], for which the “PHAKPA Disease level (%) P2 at 16 ppm” value in assay [1] came to 1%. The “PHAKPA Disease level (%) P6 at 16 ppm” value in assay [2] came out at 0%.
As to `CO/N=C(/C(=O)OC)c1cccc(C)c1CO/N=C(\C)C#Cc1cccc(Br)c1` [Example 30], the “PHAKPA Disease level (%) P2 at 16 ppm” value in assay [1] was 0%. In addition, in assay [2], the “PHAKPA Disease level (%) P6 at 16 ppm” value came to 0%.
In the case of `CNC(=O)/C(=N/OC)c1cccc(C)c1CO/N=C(\C)C#Cc1ccc(Cl)cc1` [Example 31], the “PHAKPA Disease level (%) P2 at 16 ppm” value in assay [1] was 0%. For the same molecule, in assay [2], the “PHAKPA Disease level (%) P6 at 16 ppm” value is on record as 5%.
For the molecule `CO/N=C(/C(=O)OC)c1cccc(C)c1CO/N=C(\C)C#Cc1ccc(Cl)cc1` [Example 32], in assay [1], the “PHAKPA Disease level (%) P2 at 16 ppm” value was determined as 12%. The “PHAKPA Disease level (%) P6 at 16 ppm” value in assay [2] stood at 35%.
For `CNC(=O)/C(=N/OC)c1cccc(C)c1CO/N=C(\C)C#Cc1ccc(F)cc1` [Example 33], in that order: 0% and 0%.
The corresponding values for `CO/N=C(/C(=O)OC)c1cccc(C)c1CO/N=C(\C)C#Cc1ccc(F)cc1` [Example 34] are 0% and 0%.
`CO/N=C(/C(=O)OC)c1ccccc1CO/N=C(\C)C#Cc1cccc(F)c1` [Example 35]: the “PHAKPA Disease level (%) P2 at 16 ppm” value in assay [1] is given as 32%. In addition, in assay [2], the “PHAKPA Disease level (%) P6 at 16 ppm” value is on record as 25%.
On to `CO/N=C(/C(=O)OC)c1cccc(C)c1CO/N=C(\C)C#Cc1cccc(F)c1` [Example 36], for which, in assay [1], the “PHAKPA Disease level (%) P2 at 16 ppm” value is given as 4%. Besides, the “PHAKPA Disease level (%) P6 at 16 ppm” value in assay [2] stood at 9%.
For `CNC(=O)/C(=N/OC)c1ccccc1CO/N=C(\C)C#Cc1cccc(F)c1` [Example 37], in that order: 6% and 8%.
For `CNC(=O)/C(=N/OC)c1cccc(C)c1CO/N=C(\C)C#Cc1cccc(F)c1` [Example 38], the “PHAKPA Disease level (%) P2 at 16 ppm” value in assay [1] came to 0%. The “PHAKPA Disease level (%) P6 at 16 ppm” value in assay [2] is on record as 1%.
On to `CO/N=C(/C(=O)OC)c1cccc(C)c1CO/N=C(\C)C#Cc1cccc(C(F)(F)F)c1` [Example 39], for which the “PHAKPA Disease level (%) P2 at 16 ppm” value in assay [1] came out at 2%. Also, in assay [2], the “PHAKPA Disease level (%) P6 at 16 ppm” value is on record as 1%.
For the molecule `CNC(=O)/C(=N/OC)c1cccc(C)c1CO/N=C(\C)C#Cc1cccc(C(F)(F)F)c1` [Example 40], the “PHAKPA Disease level (%) P2 at 16 ppm” value in assay [1] is recorded as 0%. The “PHAKPA Disease level (%) P6 at 16 ppm” value in assay [2] was determined as 0%.
